Measurements reported in patent US20040023884A1, “Biologically active peptides from functional domains of bactericidal/permeability-increasing protein and uses thereof” (priority 1993, published 2004).
Ends that are not written are not given here.

Columns and labels:
[1] = 3H-heparin binding assay (affinity and capacity); conditions: for Heparin Capacity: heparin bound at saturation; for Kd: read-out: Heparin Affinity
In short: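 Bound 3H-heparin was counted by liquid scintillation after 1 h incubation at 4 °C with fragments immobilised on PVDF-bottomed wells, then washing in blocking buffer. Signal was corrected for BSA-related background, and varying amounts of rBPI23 were used as positive control.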

[2] = system: E. coli 0113 LPS; assay: Limulus Amoebocyte Lysate (LAL) inhibition assay; format: biochemical
Protocol: BPI proteolytic fragments produced according to Example 1 were subjected to a Limulus Amoebocyte Lysate (LAL) inhibition assay to determine LPS binding properties of these fragments. Specifically, each of the fragments were mixed in Eppendorf tubes with a fixed concentration of E. coli 0113 LPS (4 ng/mL final concentration) and incubated at 37° C. for 3 hours with occasional shaking. Addition controls comprising rBPI23 at 0.05 μg/mL were also tested. Following incubation, 360 μL of Dulbecco's phosphate buffered saline (D-PBS; Grand Island Biological Co. (GIBCO), Long Island, N.Y.) were added per tube to obtain an LPS concentration of 200 pg/mL for the LAL assay. Each sample was then transferred into Immulon II strips (Dynatech, Chantilly, Va.) in volumes of 50 μl per well.
Limulus amoebocyte Lysate (Quantitative Chromogenic LAL kit, Whitaker Bioproducts, Inc., Walkersville, Md.) was added at 50 μL per well and the wells were incubated at room temperature for 25 minutes. Chromogenic substrate was then added at a volume of 100 μL per well and was well mixed. After incubation for 20 to 30 minutes at room temperature, the reaction was stopped with addition of 100 μL of 25% (v/v) acetic acid. Optical density at 405 nm was then measured in a multiplate reader (Model Vmax, […], Menlo Park, Calif.) with the results shown in FIG. 2 in terms of percent inhibition of LPS. In this Figure, the filled circle represents rBPI23; the open circle represents Asp-N fragment A3; the x represents Asp-N fragment A2, the filled square represents Asp-N fragment A4; the filled triangle represents Asp-N fragment A1A2; the open square represents Asp-N fragment A6a; the small open triangle represents CNBr fragment C3; and the small filled square represents CNBr fragment C1/C5.

[3] = system: C. albicans; assay: Radial diffusion fungicidal assay, Candida albicans; format: cell-based; conditions: radial diffusion
[4] = system: Candida albicans; format: cell-based; conditions: for MIC (x Fold change in fungicidal activity): alanine variant relative to BPI.13
[5] = system: E. coli 0111:B4 (smooth) bacteria; assay: Radial diffusion bactericidal assay, E. coli 0111:B4; format: cell-based; conditions: radial diffusion; PROBIT analysis; E. coli O111:B4 (smooth)
[6] = system: rough mutant E. coli J5 bacteria; assay: Radial diffusion bactericidal assay, E. coli J5; format: cell-based; conditions: for pmol added to well to achieve a 30 mm^2 bactericidal zone, E. coli J5: radial diffusion, PROBIT analysis, E. coli J5 (rough); for fold reduction in bactericidal activity in the radial diffusion assay: alanine variant vs unsubstituted peptide
In short: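 Log-phase bacteria, washed in 10 mM sodium phosphate pH 7.4, were seeded at 4×10^6 CFU/mL in underlayer agarose. BPI fragments (5 or 10 μL) went into 3 mm wells for 3 h at 37° C., then overlayer agarose was added. After overnight 37° C. incubation, clearing zones were measured by micrometer.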

[7] = alanine variant relative to BPI.13
[8] = alanine variant relative to BPI.2

Sequence	Heparin Capacity [1] [ng]	Kd [1] [nM]	LAL (relative difference) [2, 7]	C. albicans: pmol required for 30 mm^2 zone [3] [pmol]	MIC C. alb [4] [µg/mL]	MIC (x Fold change in fungicidal activity) [4]	pmol added to well to achieve a 30 mm^2 bactericidal zone, E. coli O111:B4 [5]	pmol added to well to achieve a 30 mm^2 bactericidal zone, E. coli J5 [6]	HEPCAP (x Fold change in activity) ([1]; heparin binding capacity, relative to BPI.13)	decline of Kd of heparin binding ([1]; vs unsubstituted peptide) [fold]	LAL / LPS inhibition activity (in words) [2]	increase of Kd of heparin binding and heparin capacity ([1]; vs unsubstituted peptide) [%]	LAL (relative difference) [2, 8]	activity of position 95 substitution variants (in words) ([6]; activity not further specified)	RDA (x Fold change in activity) [6, 8]	fold reduction in bactericidal activity in the radial diffusion assay [6]
KSKVGWAIQLFHKK [BPI.37]	136.7	189	= (no difference in the LAL assay)	252.71	6.25	=	b (no detectable activity up to 5 μg/well)	1,284.00 pmol								
KSKVGWLAQLFHKK [BPI.38]	194.3	579	= (no difference in the LAL assay)	390.65	6.25	=	b (no detectable activity up to 5 μg/well)	1,698.20 pmol								
KSKVGWLIQLFAKK [BPI.42]	369.1	820	= (no difference in the LAL assay)	548.49	6.25	=	3,731.70 pmol	264.80 pmol	=1.0 x Fold	1.2						
KAKVGWLIQLFHKK [BPI.32]	217.1	340		293.62	3.13		b (no detectable activity up to 5 μg/well)	613.80 pmol			moderate decrease in LPS-binding activity					
KSKVGWLIQLAHKK [BPI.41]	119.1	469	= (no difference in the LAL assay)	733.70	3.13		b (no detectable activity up to 5 μg/well)	2,465.40 pmol								
KSAVGWLIQLFHKK [BPI.33]	230.7	492		603.44	6.25	=	b (no detectable activity up to 5 μg/well)	575.40 pmol			moderate decrease in LPS-binding activity					
ASKVGWLIQLFHKK [BPI.31]	205.1	252		426.21	6.25	=	b (no detectable activity up to 5 μg/well)	937.60 pmol			moderate decrease in LPS-binding activity					
KSKVGWLIQLFHAK [BPI.43]	283.9	492	= (no difference in the LAL assay)	784.78	12.50		4,872.30 pmol	729.40 pmol								
KSKVGWLIQLFHKA [BPI.44]	335.6	579	= (no difference in the LAL assay)	577.65	6.25	=		480.80 pmol								
KSKVAWLIQLFHKK [BPI.35]	406.0	1080	= (no difference in the LAL assay)	441.79	3.13		b (no detectable activity up to 5 μg/well)	263.00 pmol				10				
KSKAGWLIQLFHKK [BPI.34]	205.1	518		319.13	6.25	=	b (no detectable activity up to 5 μg/well)	916.20 pmol			moderate decrease in LPS-binding activity					
IKISGKWKAQARFLK [BPI.24]	427.6	165					27,330.00 pmol	654.60 pmol					= (no difference in the LAL assay)	unexpected increase		
IKISGKWAAQKRFLK [BPI.22]	135.7	315					b (no detectable activity up to 5 μg/well)	2,546.80 pmol					= (no difference in the LAL assay)		=1.0 x Fold	
KSKVGWLIQAFHKK [BPI.40]	160.5	547	= (no difference in the LAL assay)	253.17	3.13		b (no detectable activity up to 5 μg/well)	1,760.10 pmol			large decrease in LPS-binding activity					approximately 5 fold
KSKVGALIQLFHKK [BPI.36]	80.2	379		196.96	6.25	=	b (no detectable activity up to 5 μg/well)	1,652.00 pmol			large decrease in LPS-binding activity					approximately 5 fold
